Measured values reported in the NIST ThermoML archive (doi:10.1021/acs.jced.7b00489).
Numbers after ± are expanded uncertainties.

Details: Crystal; DSC

O=C(c1cc(Cc2n[nH]c(=O)c3ccccc23)ccc1F)N1CCN(C(=O)C2CC2)CC1 [olaparib]
Triple point temperature: 471.65 ± 1.8 K
